For this experiment, the target named is T1, human recombinant Yes [a.a. 2–543 (end)] (Homo sapiens, UniProt P07947).
T1 construct: human recombinant Yes [a.a; 2–543 (end)]; purchased BPS Bioscience 40488
Kind of experiment: ADP-Glo kinase assay, inhibition rates of Yes phosphorylation activity (first and second screening). In kind it is biochemical. As to conditions: first screening; mean of n = 4 wells; 10 μmol L−1 compound. The essentials:
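Hits from a first pass were rescreened after re-dissolution from fresh powder. The first pass reported the mean inhibition rate of quadruplicate wells per compound. Activity was that of recombinant human Yes [a.a. 2–543] kinase, read out with the ADP-Glo ADP-detection method.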
On the technique in general: ADP-Glo turns the ADP formed in a reaction into a luminescent signal.

SMILES strings stand for the structures.

T1 sequence (P07947 2-543): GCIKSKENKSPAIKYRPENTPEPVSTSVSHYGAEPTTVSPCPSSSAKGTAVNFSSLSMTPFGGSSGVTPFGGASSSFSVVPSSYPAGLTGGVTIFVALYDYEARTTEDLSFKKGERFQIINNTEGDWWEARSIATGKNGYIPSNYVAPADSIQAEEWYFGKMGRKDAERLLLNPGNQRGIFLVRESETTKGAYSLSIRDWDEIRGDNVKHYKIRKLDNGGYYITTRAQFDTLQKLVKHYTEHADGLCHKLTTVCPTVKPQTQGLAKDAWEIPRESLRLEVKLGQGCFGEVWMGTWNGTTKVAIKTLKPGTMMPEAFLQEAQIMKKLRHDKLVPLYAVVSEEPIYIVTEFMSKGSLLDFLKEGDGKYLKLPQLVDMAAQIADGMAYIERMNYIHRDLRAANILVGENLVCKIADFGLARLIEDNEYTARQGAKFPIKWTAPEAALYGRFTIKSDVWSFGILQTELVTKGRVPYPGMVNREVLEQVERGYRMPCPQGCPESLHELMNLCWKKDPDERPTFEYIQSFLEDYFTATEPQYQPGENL

In the case of `N#Cc1cccc(C(=O)NCc2nc(-c3ccc(F)cc3)n[nH]2)c1` [Compound Z1137567528], the “First screening IR (inhibition rate)” value was determined as 55%. On to `Cn1ncc2c(N3CCOC(Cn4cccn4)C3)ncnc21` (centres unmarked) [Compound Z1139215576], for which the “First screening IR (inhibition rate)” value amounted to 18%. As to `Cc1nc(C)n(C2CCCN(C(=O)CCn3ccnc3)C2)n1` (centres unmarked) [Compound Z1139343408], the “First screening IR (inhibition rate)” value was found to be 0%. Consider `CC(C)c1nc2n(n1)CC(NCc1cc(-c3cccs3)on1)CC2` (centres unmarked) [Compound Z1139411735], for which the “First screening IR (inhibition rate)” value is listed as -5%.

`CCc1nnc2n1CCN(CC(=O)NC1CCCc3ccccc31)C2` (centres unmarked) [Compound Z1139436344]: the “First screening IR (inhibition rate)” value is -6%.

As for `Cn1cc(CNC2CCc3ncnn3C2)c(-c2ccncc2)n1` (centres unmarked) [Compound Z1139562831], the “First screening IR (inhibition rate)” value worked out at 22%. With `Cc1cccc(-c2[nH]ncc2CNC(C)C(C)n2cccn2)c1` (centres unmarked) [Compound Z1143064210] the figure was -7%; with `CSc1sc(NC(=O)c2n[nH]c(C(C)C)c2Br)nc1C` [Compound Z1143428685], 3%. Under `Cc1cc(S(C)(=O)=O)c(C)c(S(=O)(=O)N2CCCCCC2)c1` [Compound Z1145185709] stands 6%.

Take `Cc1cc(S(C)(=O)=O)c(C)c(S(=O)(=O)N2CCCC(C)C2)c1` (centres unmarked) [Compound Z1145185785]: the “First screening IR (inhibition rate)” value was 14%. For `C=CCN(CC=C)S(=O)(=O)c1cc(C)cc(S(C)(=O)=O)c1C` [Compound Z1145185872], the “First screening IR (inhibition rate)” value is 4%. Regarding `CCN(CCC#N)S(=O)(=O)c1cc(C)cc(S(C)(=O)=O)c1C` [Compound Z1145197816], the “First screening IR (inhibition rate)” value is on record as -2%. In the case of `CN(C)S(=O)(=O)c1ccc(CS(=O)(=O)C2CCCC2)o1` [Compound Z1147565999], the “First screening IR (inhibition rate)” value was -1%. With `CCC(C)NC(=O)c1ccc2c(=O)n(CC(C)C)c3nnc(SCC(=O)Nc4ccccc4C)n3c2c1` (centres unmarked) [Compound Z1157725045] the figure was -8%; with `CCC(C)NC(=O)c1ccc2c(=O)n(CC(C)C)c3nnc(SCC(=O)Nc4cccc(C)c4)n3c2c1` (centres unmarked) [Compound Z1157725046], 0%. For `O=C(CCc1nnc2n(Cc3ccc(Cl)cc3)c(=O)c3ccccc3n12)NCCCN1CCOCC1` [Compound Z1157834172], the “First screening IR (inhibition rate)” value is recorded as -1%. In the case of `CCC(Sc1nc2ccccc2c2nc(CCN3CCCCC3)nn12)C(=O)Nc1ccc2c(c1)OCO2` (centres unmarked) [Compound Z1157834229], the “First screening IR (inhibition rate)” value is recorded as -8%. Turning to `CCSc1cncc(N2CCC(C(=O)NC(C)C(C)C)CC2)n1` (centres unmarked) [Compound Z1168201963], the “First screening IR (inhibition rate)” value worked out at 4%. For `CC(C)NC(=O)N1CCCCCC1C1CCN(c2ncc(C(N)=O)cc2Cl)CC1` (centres unmarked) [Compound Z1168219830], the “First screening IR (inhibition rate)” value came to 13%. Under `CC(C)N(CCNC(=O)CCc1nnc2n(Cc3ccccc3)c(=O)c3ccccc3n12)Cc1ccco1` [Compound Z1169067733] stands 3%; under `Cc1ccc(Cn2c(=O)c3ccccc3n3c(CCC(=O)NCCCN4CCOCC4)nnc23)cc1` [Compound Z1169067737], 2%; under `Cc1ccc(Cn2c(=O)c3ccccc3n3c(CCC(=O)NCCCN4CCC(C)CC4)nnc23)cc1` [Compound Z1169067743], 18%. Under `Cc1ccc(Cn2c(=O)c3ccccc3n3c(CCC(=O)NCCN(Cc4ccco4)C(C)C)nnc23)cc1` [Compound Z1169067782] stands 4%; under `CC(C)N(CCNC(=O)CCc1nnc2n(Cc3ccc(F)cc3)c(=O)c3ccccc3n12)Cc1ccco1` [Compound Z1169067840], -10%; under `Cc1[nH]c(=O)c(C#N)c(C)c1CCc1nc(-c2cc(Br)cs2)no1` [Compound Z1170101191], 10%. With `COCC(=O)N1CCCCCC1C1CCN(c2ncc(C(N)=O)cc2Cl)CC1` (centres unmarked) [Compound Z1170427223] the figure was 2%; with `O=C(C1CC1)N1CCCCCC1C1CCN(Cc2nnc(C3CC3)o2)CC1` (centres unmarked) [Compound Z1170432033], 7%; with `Cc1ncc(C(=O)NC(C)c2cccc(NC(=O)c3ccccc3)c2)[nH]1` (centres unmarked) [Compound Z1171689075], -17%. Regarding `Cc1n[nH]c(C)c1C(C)C(=O)NCC(c1cccc(Cl)c1)N1CCCC1` (centres unmarked) [Compound Z1172045589], the “First screening IR (inhibition rate)” value worked out at 9%.

Consider `CC(=O)Nc1ccc(Nc2cc(C(C)(C)C)nc3c(-c4ccccc4Cl)c(C)nn23)cc1` [Compound Z1172235206], for which the “First screening IR (inhibition rate)” value was 6%.

In the case of `Cc1ccc(Cn2ncc3c(N4CCN(CCO)CC4)ncnc32)cc1` [Compound Z1172235406], the “First screening IR (inhibition rate)” value was -13%. With `Clc1ccccc1Cn1ncc2c(N3CCOCC3)ncnc21` [Compound Z1172235408] the figure was -4%; with `Clc1ccccc1Cn1ncc2c(NCCc3ccccc3)ncnc21` [Compound Z1172235413], 4%. Under `Clc1ccccc1Cn1ncc2c(N3CCCC3)ncnc21` [Compound Z1172235419] stands 45%. Under `CCSc1ccc(C(=O)NCCc2nc(-c3ccco3)n[nH]2)cn1` [Compound Z1174718157] stands 62%; under `O=C(Nc1nccs1)C1CCCN(C(=O)c2[nH]ncc2Br)C1` (centres unmarked) [Compound Z1177677805], 6%. As to `CCc1nn2c(Nc3ccc(C(N)=O)cc3)cc(C)nc2c1-c1ccc(F)cc1` [Compound Z1179617819], the “First screening IR (inhibition rate)” value amounted to 6%.

Turning to `Cc1[nH]ncc1Nc1ccc2nccnc2n1` [Compound Z1182665660], the “First screening IR (inhibition rate)” value turned out to be 6%. Regarding `Cc1ccc2nc3c(c(C(=O)O)c2c1)CCC/C3=C/c1cnn(C(C)C)c1` [Compound Z1184925017], the “First screening IR (inhibition rate)” value is listed as -1%. As for `N#Cc1cccc(NC(=O)NCCNC(=O)c2c(F)cccc2F)c1` [Compound Z1189154512], the “First screening IR (inhibition rate)” value is reported as -6%.

As for `O=C(NC(C1CC1)C1CC1)C1CCCN1c1ncnc2sccc12` (centres unmarked) [Compound Z1190394303], the “First screening IR (inhibition rate)” value stood at 6%. Under `FC(F)(F)c1ccnc(Nc2ccc(NCc3ccccn3)cc2)n1` [Compound Z1192169075] stands 39%. In the case of `O=C(Nc1ccc(F)cc1)NC1CCN(c2ncnc3nc[nH]c23)C1` (centres unmarked) [Compound Z1193297141], the “First screening IR (inhibition rate)” value is -11%. With `CCC(C)CS(=O)(=O)N(C)CC` (centres unmarked) [Compound Z1193464552] the figure was -7%; with `COc1ccc(-n2ccc(C(=O)N3CCCCC3c3cn[nH]c3)n2)cc1` (centres unmarked) [Compound Z1198921141], 5%; with `O=C1Cc2cc(Nc3nccc(C(F)(F)F)n3)ccc2N1` [Compound Z1199266078], 13%. `CN(C)C1(CNC(=O)CNC(=O)c2cc(F)cc(F)c2)CCOCC1` [Compound Z1199845522]: the “First screening IR (inhibition rate)” value is listed as 6%. Under `CCc1cc(=O)[nH]c(-c2cccc(NC(=O)C3(N4CCOCC4)CCCC3)c2)n1` [Compound Z1203120735] stands 3%; under `COC1CN(C(=O)c2cn(-c3ccccc3)nc2-c2cccnc2)C1` [Compound Z1203241726], 7%; under `NCC1CCCS1(=O)=O` (centres unmarked) [Compound Z1203586543], 6%. Turning to `Cc1c[nH]c(=O)n1-c1cccc(NC(=O)C2CC(=O)N(C)C2c2cccnc2)c1` (centres unmarked) [Compound Z1204166998], the “First screening IR (inhibition rate)” value was -13%. With `CC1=C(C(=O)N(C)C)C(c2ccc(-c3c(F)cccc3F)o2)NC(=S)N1` (centres unmarked) [Compound Z1211655765] the figure was 1%; with `COC1CCC(N(C)c2ncc(C(=O)N3CCOCC3)cc2Cl)CC1` (centres unmarked) [Compound Z1212734184], -2%. Under `C[S+]([O-])CCNC(=O)c1ccc(-c2cc(Cl)cc(Cl)c2)s1` (centres unmarked) [Compound Z1220303895] stands -13%; under `COC(=O)Cn1ncc2c(NCCCc3cccc(F)c3)ncnc21` [Compound Z1220626900], -8%.

As for `COc1ccccc1NC(=O)C1=C(C)Nc2nc(SCc3ccccc3)nn2C1c1ccncc1` (centres unmarked) [Compound Z1227522997], the “First screening IR (inhibition rate)” value is listed as -5%. In the case of `CC1OC(C)(C)N(C(=O)OC(C)(C)C)C1CNC(=O)c1c(F)cccc1Cl` (centres unmarked) [Compound Z1229892973], the “First screening IR (inhibition rate)” value was -2%. Under `CC(C)(C)OC(=O)N1CC(NC(=O)c2cc3c(F)cc(Br)cc3[nH]2)C1` [Compound Z1231909655] stands -12%; under `CCN(CC)Cc1ccc(C(=O)N2CCC3(C2)NC(=O)NC3=O)cc1` (centres unmarked) [Compound Z1233805260], 5%. As to `CN1CCN(S(=O)(=O)CCS(C)(=O)=O)CC1` [Compound Z1238645651], the “First screening IR (inhibition rate)” value was -2%. Regarding `Cc1ccc(-n2cnc3c2CCNC3)cc1` [Compound Z1250487636], the “First screening IR (inhibition rate)” value is listed as -7%. In the case of `CC1(C)CN=C(N2CCN(C(=O)c3ccc(C(N)=O)cc3)CC2)S1` [Compound Z1250701189], the “First screening IR (inhibition rate)” value was determined as 3%.

For the molecule `CCC1CN(C(=O)OCc2ccccc2)C(CC)CN1C(=O)CCc1cnn(C)c1` (centres unmarked) [Compound Z1251624666], the “First screening IR (inhibition rate)” value is -2%. With `Cc1cc(C(=O)Nc2nc3ccccc3n2C2CCCC2)nn1C` [Compound Z1251687771] the figure was 9%; with `COC(=O)c1ccc(F)c(S(=O)(=O)N(C)C2C3CCOC3C2(C)C)c1` (centres unmarked) [Compound Z1252759503], 3%.

The record behind these values is publication PMC5607274, “An iterative compound screening contest method for identifying target protein inhibitors using the tyrosine-protein kinase Yes” (Scientific Reports, 2017).
